As a reminder, the IC50 is the point on the concentration scale where inhibition reaches its midpoint. A word on the viability, T/C: it is the ratio of treated to control.

The subject of the test is 186277-243-T-J2-PDC complex spheroid viability. Put plainly: Anticancer human tumor 186277-243-T-J2-PDC patient-derived colon adenocarcinoma cell line growth inhibition [POLQ]. The following applies: for viability, T/C: stronger effect = lower value. The method, then: Multicellular complex tumor spheroid response to Polymerase (POL) inhibitors (novobiocin, ART-558, RP6685) in combination with a variety of drugs and investigational agents in selected tumor cell lines
The POL inhibitors (novobiocin, ART-558, and RP6685) were evaluated both individually and in combination with standard of care and investigational anticancer small molecules within a complex spheroid model of solid tumors. . Complex spheroids include a stromal component modeled by human endothelial cells (HUVEC) and fibroblasts modeled by human mesenchymal stem cells (MSCs). The concentration ranges selected for each drug and investigational agent were based upon clinically achievable concentrations if the clinical Cmax of the agent was known.
Compounds. The drugs and investigational agents: novobiocin (NSC847541), ART-558 (NSC835418), RP-6685 (NSC848927), peposertib (NSC802822), ceralasertib (NSC780249), elimusertib (NSC800525), camonsertib (NSC841442), AZD-1390 (NSC803789), olaparib (NSC753686), talazoparib (NSC767125), rucaparib (NSC756644), sotorasib (NSC818433), MRTX-1133 (NSC836407), SN-38 (NSC673596), topotecan (NSC609699), epotoside (NSC141540), doxorubicin (NSC123127), gemcitabine (NSC613327), 5-fluorouracil (NSC19893), paclitaxel (NSC125973), vemurafenib (NSC761431), MSA-2 (NSC828583), SN-011 (NSC837082), adavosertib (NSC754352), prexasertib (NSC758257), carboplatin (NSC241240) and oxaliplatin (NSC266046), were obtained from the National Cancer Institute (NCI) Developmental Therapeutics Program Chemical Repository (21). The FDA-approved anticancer drug set is available from the Developmental Therapeutics Program at https://dtp.cancer.gov/organization/dscb/obtaining/. […] The stock solutions were prepared in dimethyl sulfoxide (DMSO, Sigma-Aldrich, St. Louis, MO, cat. D2650), except for the platinum compounds which were prepared in saline (Quality Biological, Gaithersburg, MD, cat. 114-055-101), at 800-fold the tested concentration and stored at -70 degrees C prior to their use. All drugs and investigational agents were tested over a range starting from a high concentration at or near the clinical Cmax and decreasing in half-log increments. If the clinical Cmax for an agent had not been determined, the highest concentration tested was 10 microM, except for SN-38, which was tested at a high concentration of 1 microM.
Cell Culture. All cells were maintained in an incubator at 37 degrees C and 5% CO2 with 95% humidity. The PDC lines were cultured according to standard operating procedures established by the NCI PDMR (https://pdmr.cancer.gov). Table 3 of the manuscript, lists the cell lines along with the number of the three cell types plated to form the mct-spheroids and media for tumor cell growth. After thawing, all PDC lines, except 997537-175-T-J1-PDC and 415267-285-R-J2-PDC, were cultured in Matrigel-coated flasks prepared with a working solution of 1X Ham's F-12 nutrient mix, without supplementation (Thermo Fisher Scientific, cat. 11765054), 100 U/mL penicillin-streptomycin (Thermo Fisher Scientific, cat. 15140122), and 2.5% Matrigel (Corning Inc., Corning, NY, cat. 354248) for the first three passages. The two PDC lines 997537-175-T-J1-PDC and 415267-285-R-J2-PDC were cultured on uncoated flasks. The 857933-349-R-J2-PDC line was cultured in 6C/Colon 1B media containing advanced DMEM/F-12 (Thermo Fisher Scientific, cat. 12634028), 10 mM HEPES (Thermo Fisher Scientific, cat. 15630080), 1X GlutaMAX supplement (Thermo Fisher Scientific, cat. 35050061), 0.1 mg/mL primocin (InvivoGen, San Diego, CA, cat. ant-pm-2), 10% defined fetal bovine serum, heat inactivated (HyClone Laboratories Inc., Logan, UT, cat. SH30070.03HI), 50% L-WRN conditioned media (ATCC, cat. CRL-3276), 1.25 mM N-Acetyl-L-cysteine (Sigma-Aldrich, cat. A9165), 10 mM nicotinamide (Sigma-Aldrich, cat. N0636), 1X B-27 supplement (Thermo Fisher Scientific, cat. 17504044), 1X N-2 supplement (Thermo Fisher Scientific, cat. […]

[1] abbreviates: curve of first compound, second compound 0.0316 µM.
Where [2] appears, read: curve of first compound, second compound 0.1 µM.
[3] abbreviates: curve of first compound, second compound 0.316 µM.
Setting [4] is: curve of first compound, second compound 1 µM.
Where [5] appears, read: curve of first compound, second compound 3.16 µM.
Where [6] appears, read: curve of first compound, second compound 10 µM.
[7] abbreviates: second compound 0.0316 µM, first compound 0.0316 µM.
Setting [8] is: second compound 0.0316 µM, first compound 0.1 µM.
[9] abbreviates: second compound 0.0316 µM, first compound 0.316 µM.
Setting [10] is: second compound 0.0316 µM, first compound 1 µM.
Where [11] appears, read: second compound 0.1 µM, first compound 0.0316 µM.
The mark [12] stands for this setting: second compound 0.1 µM, first compound 0.1 µM.
Setting [13] is: second compound 0.1 µM, first compound 0.316 µM.
The mark [14] stands for this setting: second compound 0.1 µM, first compound 1 µM.
Setting [15] is: second compound 0.316 µM, first compound 0.0316 µM.
Setting [16] is: second compound 0.316 µM, first compound 0.1 µM.
The mark [17] stands for this setting: second compound 0.316 µM, first compound 0.316 µM.
Setting [18] is: second compound 0.316 µM, first compound 1 µM.
[19] abbreviates: second compound 1 µM, first compound 0.0316 µM.
Where [20] appears, read: second compound 1 µM, first compound 0.1 µM.
The mark [21] stands for this setting: second compound 1 µM, first compound 0.316 µM.
The mark [22] stands for this setting: second compound 1 µM, first compound 1 µM.
[23] abbreviates: second compound 3.16 µM, first compound 0.0316 µM.
The mark [24] stands for this setting: second compound 3.16 µM, first compound 0.1 µM.
[25] abbreviates: second compound 3.16 µM, first compound 0.316 µM.
The mark [26] stands for this setting: second compound 3.16 µM, first compound 1 µM.
Where [27] appears, read: second compound 10 µM, first compound 0.0316 µM.
Setting [28] is: second compound 10 µM, first compound 0.1 µM.
Where [29] appears, read: second compound 10 µM, first compound 0.316 µM.
Where [30] appears, read: second compound 10 µM, first compound 1 µM.

Where “and” joins values, the source holds several entries; their conditions need not be identical. Equal entries are not always repeated.
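Note: spheroids exposed to compounds for seven days.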

Take `CCc1cc2c(N3CCc4c(cc(Cn5ccnc5)cc4-c4cn(C)nc4C(F)(F)F)C3=O)ccnc2c(OC)n1` + Cc1cccc(N(C)C(=O)C2C(O)CCN2c2nc(C)cc(C(F)(F)F)c2C#N)c1: the IC50 under setting [1] is over 10000 nM; the IC50 under setting [2] was over 10000 nM; the IC50 under setting [3] is over 10000 nM; the IC50 under setting [4] is over 10000 nM; the IC50 under setting [5] is over 10000 nM; the IC50 under setting [6] is over 10000 nM. Also, the viability, T/C by setting is: under setting [7], 96.1%; under setting [8], 82.8%; under setting [9], 96.2%; under setting [10], 96.2%; (second compound 0.0316 µM, first compound 3.16 µM) 106%; (second compound 0.0316 µM, first compound 10 µM) 100%. Moreover, the viability, T/C under setting [11] is 90.7%; the viability, T/C under setting [12] was 98.5%; the viability, T/C under setting [13] was 107%; the viability, T/C under setting [14] was 88.6%; the viability, T/C (second compound 0.1 µM, first compound 3.16 µM) was 112%; the viability, T/C (second compound 0.1 µM, first compound 10 µM) is 103%. Besides, the viability, T/C was 96.7% under setting [15]; 95.2% under setting [16]; 97.2% under setting [17]; 106% under setting [18]; 109% (second compound 0.316 µM, first compound 3.16 µM); 107% (second compound 0.316 µM, first compound 10 µM). Besides, the viability, T/C is 102% under setting [19]; 127% under setting [20]; 107% under setting [21]; 100% under setting [22]; 93.6% (second compound 1 µM, first compound 3.16 µM); 102% (second compound 1 µM, first compound 10 µM). In addition, the viability, T/C reads like this: under setting [23], 93.8%; under setting [24], 97.3%; under setting [25], 100%; under setting [26], 118%; (second compound 3.16 µM, first compound 3.16 µM) 119%; (second compound 3.16 µM, first compound 10 µM) 106%. Also, the viability, T/C reads like this: under setting [27], 114%; under setting [28], 94.7%; under setting [29], 111%; under setting [30], 96.8%; (second compound 10 µM, first compound 3.16 µM) 108%; (second compound 10 µM, first compound 10 µM) 109%.
On to `C=CCn1c(=O)c2cnc(Nc3ccc(N4CCN(C)CC4)cc3)nc2n1-c1cccc(C(C)(C)O)n1` + Cc1cccc(N(C)C(=O)C2C(O)CCN2c2nc(C)cc(C(F)(F)F)c2C#N)c1, for which the IC50 under setting [1] is 213 nM; the IC50 under setting [2] came out at 230 nM; the IC50 under setting [3] was found to be 220 nM; the IC50 under setting [4] came out at 226 nM; the IC50 under setting [5] was 223 nM; the IC50 under setting [6] worked out at 224 nM. The viability, T/C by setting is: (second compound 0.0316 µM, first compound 0.00316 µM) 107%; (second compound 0.0316 µM, first compound 0.01 µM) 102%; under setting [7], 88.4%; under setting [8], 96.3%; under setting [9], 25.9%; under setting [10], 12.5%. The viability, T/C is 99.1% (second compound 0.1 µM, first compound 0.00316 µM); 112% (second compound 0.1 µM, first compound 0.01 µM); 95.3% under setting [11]; 106% under setting [12]; 29.6% under setting [13]; 13.7% under setting [14]. For the same compound, the viability, T/C (second compound 0.316 µM, first compound 0.00316 µM) was 88.1%; the viability, T/C (second compound 0.316 µM, first compound 0.01 µM) was 99.4%; the viability, T/C under setting [15] was 103%; the viability, T/C under setting [16] was 111%; the viability, T/C under setting [17] is 26.6%; the viability, T/C under setting [18] was 13.8%. The viability, T/C is, setting by setting: (second compound 1 µM, first compound 0.00316 µM) 102%; (second compound 1 µM, first compound 0.01 µM) 119%; under setting [19], 104%; under setting [20], 110%; under setting [21], 25.7%; under setting [22], 12.5%. The viability, T/C by setting is: (second compound 3.16 µM, first compound 0.00316 µM) 119%; (second compound 3.16 µM, first compound 0.01 µM) 95.7%; under setting [23], 102%; under setting [24], 131%; under setting [25], 22.8%; under setting [26], 16.8%. For the same compound, the viability, T/C is 116% (second compound 10 µM, first compound 0.00316 µM); 102% (second compound 10 µM, first compound 0.01 µM); 106% under setting [27]; 106% under setting [28]; 24.7% under setting [29]; 12.8% under setting [30].
`Nc1ccn(C2OC(CO)C(O)C2(F)F)c(=O)n1` (stereo not drawn): the viability, T/C (compound 0.0316 µM) was 7.08% and 13.1% and 7.05%; the viability, T/C (compound 0.1 µM) is 6.01% and 12.5% and 5.9%; the viability, T/C (compound 0.316 µM) is 7.05% and 13.8% and 6.01%; the viability, T/C (compound 1 µM) is 8.16% and 14.3% and 6.86%; the viability, T/C (compound 3.16 µM) was 7.56% and 13.9% and 6.67%; the viability, T/C (compound 10 µM) was 6.46% and 13.6% and 5.49%. The IC50 (curve of compound) is under 31.6 nM.
Regarding `CC1COCCN1c1cc(C2(S(C)(=N)=O)CC2)nc(-c2ccnc3[nH]ccc23)n1` (stereo not drawn), the viability, T/C is 97.6% and 101% and 100% (compound 0.0316 µM); 110% and 107% and 101% (compound 0.1 µM); 102% and 106% and 112% (compound 0.316 µM); 38% and 82.3% and 42.9% (compound 1 µM); 7.52% and 14% and 6.48% (compound 3.16 µM); 5.94% and 9.28% and 6.22% (compound 10 µM). The IC50 (curve of compound) is 805 nM and 1720 nM and 876 nM.
In the case of `Cc1cccc(N(C)C(=O)C2C(O)CCN2c2nc(C)cc(C(F)(F)F)c2C#N)c1` (stereo not drawn), the viability, T/C is, setting by setting: (compound 0.0316 µM) 107% [middle of 13 runs]; (compound 0.1 µM) 102% [middle of 13 runs]; (compound 0.316 µM) 99.1% [middle of 13 runs]; (compound 1 µM) 97.2% [middle of 13 runs]; (compound 3.16 µM) 95.9% [middle of 13 runs]; (compound 10 µM) 92.7% [middle of 13 runs]. Moreover, the 50% inhibitory concentration (IC50) is, setting by setting: (compound alone, run of 10/31/2023) over 10000 nM; (compound alone, run of 11/06/2023) over 10000 nM.
Turning to `CC(C)n1c(=O)n(C)c2cnc3cc(F)c(-c4ccc(OCCCN5CCCCC5)nc4)cc3c21`, the viability, T/C runs as follows: (compound 0.0316 µM) 86.3% and 111% and 107%; (compound 0.1 µM) 104% and 91.8% and 97.7%; (compound 0.316 µM) 89.3% and 95.6% and 91.6%; (compound 1 µM) 100% and 98.3% and 88.6%; (compound 3.16 µM) 100% and 98.2% and 98.4%; (compound 10 µM) 86% and 92.2% and 96.9%. Moreover, the IC50 (curve of compound) was over 10000 nM.

These data come from PubChem BioAssay AID1963854 (Molecular Pharmacology Branch, DTP, NCI, 2024).
